Results taken from patent US8206762B2, “Use of Echinacea or preparations thereof in compositions for the treatment of anxiety” (priority 2006, dated 2012).
“Also recorded” adds a separate entry of the source.

Columns and labels:
mice = conditions: cited from earlier work
rats = conditions: cited from earlier work
humans = conditions: lorazepam 3×1 mg daily; buspirone 3×5 mg daily; cited from earlier work
Wistar rats = experiment: Elevated plus-maze test of anxiety; type: in vivo, rat; conditions: FIG. 2
Experimental: For laboratory studies, we used an ethyl alcoholic Echinacea purpurea root tincture prepared by FitoChem Ltd. (H-2200 Monor, 14 Kossuth Str, ww.fitochem.hu), on the 21st of February, 2006 (Lot number FECH-010011205; analytical ID: 052/06). The dry residue was 1.7% w/w, whereas the lead content was less than 10 μg/g. Microbiological analysis provided satisfactory results (e.g. the total plate count was less than 1000 CFU/g). The extract containing 70% ethyl alcohol was stored at room temperature (validity date under these conditions: March, 2007), and used in experiments in April-May, 2006. Before use, ethyl alcohol was evaporated in vacuum at 4° C. by means of a Speed Vac Concentrator (Savant Instruments Inc., Farmingdale, USA). […] The dose was expressed as mg dry residue/kg body weight. […]
This test was described first by Pellow et al. (1984), and later became one of the most popular anxiety tests, frequently used for the identification of putative anxiolytics. […] To avoid confounds with anxiety, the locomotor effects of compounds are evaluated based on closed arm entries (Hogg, 1996).
The elevated plus-maze (arm length 50 cm, arm width 17 cm; wall height 30 cm; platform height 80 cm) was made of dark grey painted wood, and lit by 4 white lamps of 40 W each (approximately 200 lx). […] Behaviors were scored by experimenters blind to treatment conditions by means of a computer based event recorder. […]

Cc1c(C(=O)NN2CCCCC2)nn(-c2ccc(Cl)cc2Cl)c1-c1ccc(I)cc1 [AM-251]
effect on anxiety in mice (mice): anxiogenic

Cc1c(C(=O)NN2CCCCC2)nn(-c2ccc(Cl)cc2Cl)c1-c1ccc(Cl)cc1 [SR-141716A]
effect on anxiety in rats (rats): anxiogenic | effect on anxiety in mice (mice): anxiolytic

O=C1CC2(CCCC2)CC(=O)N1CCCCN1CCN(c2ncccn2)CC1 [buspirone]
time to significant effects over placebo on State-Trait Anxiety Inventory scores (humans): 3 weeks | treatment time to State-Trait anxiety scores lower than 45 (humans): 6 weeks

CNC1=Nc2ccc(Cl)cc2C(c2ccccc2)=[N+]([O-])C1 [chlordiazepoxide]
locomotor behavior (closed arm entries) / sedation (Wistar rats): highly sedative at higher doses; also recorded: significant locomotor suppression

O=C1Nc2ccc(Cl)cc2C(c2ccccc2Cl)=NC1O (centres unmarked) [lorazepam]
time to significant effects over placebo on State-Trait Anxiety Inventory scores (humans): one week | treatment time to State-Trait anxiety scores lower than 45 (humans): three weeks
